# Laboratory results published in patent publication US20040152684A1, “Use of antigestagens for inhibiting accelerated endometrial maturation during infertility treatment” (priority 2001, published 2004).
# Test system: endometrium of the superovulated pseudopregnant rabbit
# Assay: Endometrial receptivity in the superovulated pseudopregnant rabbit model
# Type: in vivo, New Zealand White rabbits
# Settings: for endometrial maturation (in words): compared with Group 1 controls not subject to ovarian hyperstimulation; for Mc-Phail [x ± SD] (endometrial transformation index, 1 no to 4 high transformation) / Uterine wet weight [x ± SD]: measured at d5 p.hCG; for Uteroglobin ISH [expression in luminal epithelial cells]: uteroglobin mRNA at d5 p.hCG
# Experimental: The effects of a 17α-fluoralkylated progesterone receptor antagonist on endometrial activity was evaluated in the superovulated pseudopregnant rabbit model. The pseudopregnancy of the rabbit has proven to be a model system for the human luteal phase (Beier and Kuhnel, 1973, Hormone Res. 4:1-27; Fischer et al., 1985, Fertilitat 1:101-109. In this species, ovarian stimulation induces an advancement of secretory transformation (Delbos-Winter et al., 1987, Fertilitat 3: 87-93) as well as an enhancement of gland formation.
# A total of 25 sexually mature nulliparous New Zealand White rabbits with a body weight of 3.1 to 4.0 kg were used for the analysis. The animals were divided into two control groups (groups 1 and 2) and three treatment groups (groups 3-5), with five animals in each group.
# Control group 1 received 75 international units (IU) of human chorionic gonadotropin (hCG) administered intravenously in order to induce pseudopregnancy. The day of hCG-injection was designated as day 0 of pseudopregnancy (d0 p.hCG).
# Control group 2 and treatment groups 3, 4, and 5 were gonadotropin-stimulated with 5 IU of the human menopausal gonadotropin (HMG) Pergonal® (Serono Pharma, Unterschleipheim, Germany) for 3 days, by subcutaneous injection, in order to induce multiple follicular growth. Pseudopregnancy was induced by the administration of human chorionic gonadotropin (hCG) as described for control group 1 above.
# Treatment groups 3, 4 and 5 also received a single per oral application of a 17α-fluoralkylated progesterone receptor antagonist (Compound A) two days after pseudopregnancy induction with the administration of human chorionic gonadotropin (d2 p.hCG).
# Animals in all treatment groups were sacrificed on day 5 following pseudopregnancy induction (d5 p.hCG), and uteri were removed. Relative uterine wet weights were determined (in mg/100 g body weight) and a part of the uterus was snap frozen in liquid nitrogen for determination of uteroglobin expression by in situ hybridization. Uteroglobin expression is known as a highly sensitive parameter for determination of endometrial receptivity (Beier, H. M., 1968, Biochem Biophys. Acta. 160:289-291; Beier, H. M., 1982, in: Beier, H. M. and Karlson, P. (eds.), Proteins and Steroids in Early Pregnancy), and is a marker for secretory activity (Beier, 1976, J. Reprod. Fertil. Suppl. 25:53-69) and differentiation of the endometrial epithelium (Krusche & Beier, 1994, Ann. Anat. 176:23-31). In situ hybridization for detection of uteroglobin expression was conducted as previously described in Krusche & Beier, above. Another piece of the uterus was removed and processed for paraffin histology in order to determine the endometrial transformation status using the McPhail-Index (McPhail M k, 1934, J. Phys. 83:145-156) The McPhail Index reflects different degrees of progestogenic (transforming) activity in the rabbit endometrium:
# 3. pronounced transformation
# [1] = Group 3: HMG + hCG, single per oral 0.1 mg/kg on d2 p.hCG
# [2] = Group 4: HMG + hCG, single per oral 1 mg/kg on d2 p.hCG
# [3] = Group 5: HMG + hCG, single per oral 10 mg/kg on d2 p.hCG
compound,measurement,setting,value
"CC(=O)c1ccc([C@H]2C[C@@]3(C)[C@@H](CC[C@@]3(O)C(F)(F)C(F)(F)F)[C@@H]3CCC4=CC(=O)CCC4=C32)cc1 [Compound A, 11β-(4-acetylphenyl)-17β-hydroxy-17α-(1,1,2,2,2-pentafluoroethyl)estra-4,9-dien-3-one]",endometrial maturation (in words),0.1 mg/kg (Group 3),roughly corresponded with that of control animals which were not subject to ovarian hyperstimulation
same,endometrial maturation (in words),1 mg/kg (group 4),delayed the timing of maturation beyond that observed in animals which were not subject to hyperovarian stimulation
same,endometrial maturation (in words),10 mg/kg (group 5),delayed the timing of maturation beyond that observed in animals which were not subject to hyperovarian stimulation
same,"Mc-Phail [x ± SD] (endometrial transformation index, 1 no to 4 high transformation)",[1],3.0 ± 0.1
same,Uterine wet weight [x ± SD],[1],305 ± 48 mg/kg
same,Uteroglobin ISH [expression in luminal epithelial cells],[1],very high
same,"Mc-Phail [x ± SD] (endometrial transformation index, 1 no to 4 high transformation)",[2],1.5 ± 0.3
same,Uterine wet weight [x ± SD],[2],227 ± 56 mg/kg
same,Uteroglobin ISH [expression in luminal epithelial cells],[2],very low
same,"Mc-Phail [x ± SD] (endometrial transformation index, 1 no to 4 high transformation)",[3],1.1 ± 0.3
same,Uterine wet weight [x ± SD],[3],144 ± 30 mg/kg
same,Uteroglobin ISH [expression in luminal epithelial cells],[3],absent
